Measured values reported in US9625458B2, “Biosensor” (priority 2002, dated 2017).

What was measured:
[1] = biological target: T1, E. coli ribose binding protein (RBP), fluorophore-conjugated cysteine mutants (Escherichia coli, UniProt P02925); test: Ligand affinity of ribose BP fluorescent conjugates (Kd range); conditions: range over conjugates, n=14
T1 construct: single-Cys mutants (e.g. T135C, E192C) with fluorophores
Excerpt: (§1) Molecular Cloning. […] Amplified products were cloned into one of the protein expression vectors pAED4 (Doering, “Functional and structural studies of a small f-actin binding domain” in Ph.D. thesis, Massachusetts Institute of Technology, 1992); pKK223-3 (Brosius & Holy, Proc. Natl. Acad. Sci. USA 81:6929-6933, 1984); or pET vectors (Studier et al., Meth. Enzymol. 185:60-89, 1990) (Novagen). N-terminal oligonucleotide primers were designed to clone only the processed periplasmic form, deleting the signal sequence. The C-terminal primer was designed to append the sequence Gly-Ser-Gly-(His)n or Gly-Ser-(His)n, where n=5, 6, or 10. Two tandem stop codons (TAATGA) follow the last His codon. […] Additionally the sequence of Fe(III) BP was mutated by substitution of Glu57 with Asp to raise the Kd to a concentration range conveniently measured using Fe(III) citrate.
(§2) Fluorophore conjugation to cysteine-substituted bPBPs. […] The efficiency of reporter group attachment was assessed by determination of unreacted thiol with Ellman's reagent (Ellman, Arch. Biochem. Biophys. 74:443-450, 1958) or by measuring the ratio of fluorophore to protein from absorbance spectra of the purified conjugate.
(§3) Fluorimetry. […] Fluorescence emission spectra were acquired with excitation and emission slit widths of 4 and 8 nm, respectively. […]

[2] = biological target: T2, E. coli ribose binding protein variant A234C, fluorophore conjugate (Escherichia coli, UniProt P02925, A259C); test: Fluorimetric titration of fluorophore conjugates; conditions: ligand ribose
T2 construct: Gly-Ser-Gly-(His)n or Gly-Ser-(His)n, n=5, 6 or 10 (C); initiator methionine (N); made in house; host or cells: E. coli strain BL21-DE3
Excerpt: (§4) Molecular Cloning. […] Amplified products were cloned into one of the protein expression vectors pAED4 (Doering, “Functional and structural studies of a small f-actin binding domain” in Ph.D. thesis, Massachusetts Institute of Technology, 1992); pKK223-3 (Brosius & Holy, Proc. Natl. Acad. Sci. USA 81:6929-6933, 1984); or pET vectors (Studier et al., Meth. Enzymol. 185:60-89, 1990) (Novagen). N-terminal oligonucleotide primers were designed to clone only the processed periplasmic form, deleting the signal sequence. The C-terminal primer was designed to append the sequence Gly-Ser-Gly-(His)n or Gly-Ser-(His)n, where n=5, 6, or 10. Two tandem stop codons (TAATGA) follow the last His codon. […] Single amino acid substitutions were generated by overlapping PCR mutagenesis (Ho et al., Gene 77:51-59, 1989). All clones and mutations were confirmed by nucleotide sequencing. In the case of arabinose BP, the single cysteine in the wild type sequence was replaced by alanine to eliminate the possibility of reporter group conjugation to this thiol (Miller et al., J. Biol. Chem. 254:7521-7528, 1979). Additionally the sequence of Fe(III) BP was mutated by substitution of Glu57 with Asp to raise the Kd to a concentration range conveniently measured using Fe(III) citrate.
(§5) Fluorophore conjugation to cysteine-substituted bPBPs. Thiol-reactive fluorophores obtained from Molecular Probes (Eugene, Oreg.) were 5-iodoacetamidofluorescein (fluorescein); N-(1-pyrene) iodoacetamide (pyrene); N,N′-dimethyl-N-(iodoacetyl)-N′-(7-nitrobenz-2-oxa-1,3-diazol-4-yl)ethylenediamide (NBD); N-((2-(iodoacetoxy)ethyl)-N-methyl)amino-7-nitrobenz-2-oxa-1,3-diazole (NBDE); and 6-acryloyl-2-dimethylaminonaphthalene (acrylodan). The styryl and naphthyl dyes JPW4039, JPW4042, and JPW4045 (FIG. 3) were synthesized at the University of Connecticut. All fluorophore conjugation steps were typically carried out at room temperature. To protein at a concentration of 100 μM was added tris-(2-carboxyethyl)phosphine HCl to a five-fold molar excess to reduce intermolecular disulfide bonds. A thiol-reactive fluorophore (20 to 25 mM in acetonitrile or dimethyl sulfoxide) was added in small aliquots to a five-fold molar excess over protein. Conjugation proceeded in the dark at room temperature for 4 hours, or overnight at 4° C. Separation of protein from unreacted fluorophore was achieved by exhaustive dialysis or by size-exclusion chromatography. The efficiency of reporter group attachment was assessed by determination of unreacted thiol with Ellman's reagent (Ellman, Arch. Biochem. Biophys. 74:443-450, 1958) or by measuring the ratio of fluorophore to protein from absorbance spectra of the purified conjugate.
(§6) Fluorimetry. All measurements were conducted with an SLM Aminco-Bowman series 2 fluorimeter, with sample stirring at 25° C. Fluorescence emission spectra were acquired with excitation and emission slit widths of 4 and 8 nm, respectively. Photomultiplier tube potential was maintained between 400 and 800 volts. Protein concentrations were in the range of 50 to 1000 nM. Fluorophore-specific excitation was at the following approximate wavelengths: tryptophan, 290 nm; acrylodan, 390 nm; fluorescein, 485 nm; pyrene, 340 nm; NBD and NBDE, 490 nm; JPW4039, 485 nm; JPW4042, 470 nm; JPW4045, 470 nm.
(§7) Corrections were made for dilution of the protein and for background signal from buffer. Binding curves were fit to binding isotherms using equation 3 or 4, as appropriate.
(§8) Analyte affinity measurements. […] The emission wavelength monitored was that of maximum difference in intensity between the ligand-free and bound states. For each conjugate, fluorescence intensiometric observations were fit to a hyperbolic binding isotherm for a two-state model (Marvin et al., Proc. Natl. Acad. Sci. USA 94:4366-4371, 1997): […]

[3] = biological target: T3, E. coli ribose binding protein variant E192C, fluorophore conjugate (Escherichia coli, UniProt P02925, E217C); test: Fluorimetric titration of fluorophore conjugates
T3 construct: Gly-Ser-Gly-(His)n or Gly-Ser-(His)n, n=5, 6 or 10 (C); initiator methionine (N); made in house; host or cells: E. coli strain BL21-DE3
Excerpt: as §4, §5, §6, §7, §8

[4] = biological target: T4, E. coli ribose binding protein variant L236C, fluorophore conjugate (Escherichia coli, UniProt P02925, L261C); test: Fluorimetric titration of fluorophore conjugates; conditions: ligand ribose
T4 construct: Gly-Ser-Gly-(His)n or Gly-Ser-(His)n, n=5, 6 or 10 (C); initiator methionine (N); made in house; host or cells: E. coli strain BL21-DE3
Excerpt: as §4, §5, §6, §7, §8

[5] = biological target: T5, E. coli ribose binding protein variant L265C, fluorophore conjugate (Escherichia coli, UniProt P02925, L290C); test: Fluorimetric titration of fluorophore conjugates
T5 construct: Gly-Ser-Gly-(His)n or Gly-Ser-(His)n, n=5, 6 or 10 (C); initiator methionine (N); made in house; host or cells: E. coli strain BL21-DE3
Excerpt: as §4, §5, §6, §7, §8

[6] = biological target: T6, E. coli dipeptide binding protein (DPP), fluorophore-conjugated cysteine mutants (Escherichia coli, UniProt P23847); test: Ligand affinity of dipeptide BP fluorescent conjugates (Kd range); conditions: range over conjugates, n=21
T6 construct: several single-Cys mutants (e.g. K394C) with fluorophore
Excerpt: as §1, §2, §3

[7] = biological target: T7, E. coli dipeptide binding protein variant D450C, fluorophore conjugate (Escherichia coli, UniProt P23847, D478C); test: Fluorimetric titration of fluorophore conjugates; conditions: peristeric site
T7 construct: initiator methionine (N); Gly-Ser-Gly-(His)n or Gly-Ser-(His)n (n = 5, 6 or 10) (C); made in house; host or cells: E. coli BL21-DE3
Excerpt: as §4, §5, §6, §7, §8

[8] = biological target: T8, E. coli dipeptide binding protein variant K394C, fluorophore conjugate (Escherichia coli, UniProt P23847, K422C); test: Fluorimetric titration of fluorophore conjugates
T8 construct: initiator methionine (N); Gly-Ser-Gly-(His)n or Gly-Ser-(His)n (n = 5, 6 or 10) (C); made in house; host or cells: E. coli BL21-DE3
Excerpt: as §4, §5, §6, §7, §8

[9] = biological target: T9, E. coli dipeptide binding protein variant R141C, fluorophore conjugate (Escherichia coli, UniProt P23847, R169C); test: Fluorimetric titration of fluorophore conjugates; conditions: peristeric site
T9 construct: initiator methionine (N); Gly-Ser-Gly-(His)n or Gly-Ser-(His)n (n = 5, 6 or 10) (C); made in house; host or cells: E. coli BL21-DE3
Excerpt: as §4, §5, §6, §7, §8

[10] = biological target: T10, E. coli dipeptide binding protein variant S111C, fluorophore conjugate (Escherichia coli, UniProt P23847, S139C); test: Fluorimetric titration of fluorophore conjugates; conditions: peristeric site
T10 construct: initiator methionine (N); Gly-Ser-Gly-(His)n or Gly-Ser-(His)n (n = 5, 6 or 10) (C); made in house; host or cells: E. coli BL21-DE3
Excerpt: as §4, §5, §6, §7, §8

[11] = biological target: T11, E. coli dipeptide binding protein variant T44C, fluorophore conjugate (Escherichia coli, UniProt P23847, T72C); test: Fluorimetric titration of fluorophore conjugates; conditions: peristeric site
T11 construct: initiation methionine (N); Gly-Ser-Gly-(His)n or Gly-Ser-(His)n (C); made in house; host or cells: E. coli BL21-DE3
Excerpt: as §4, §5, §6, §7, §8

[12] = biological target: T12, E. coli dipeptide binding protein variant W315C, fluorophore conjugate (Escherichia coli, UniProt P23847, W343C); test: Fluorimetric titration of fluorophore conjugates; conditions: peristeric site
T12 construct: initiation methionine (N); Gly-Ser-Gly-(His)n or Gly-Ser-(His)n (C); made in house; host or cells: E. coli BL21-DE3
Excerpt: as §4, §5, §6, §7, §8

T10 sequence (P23847 29-535 S139C): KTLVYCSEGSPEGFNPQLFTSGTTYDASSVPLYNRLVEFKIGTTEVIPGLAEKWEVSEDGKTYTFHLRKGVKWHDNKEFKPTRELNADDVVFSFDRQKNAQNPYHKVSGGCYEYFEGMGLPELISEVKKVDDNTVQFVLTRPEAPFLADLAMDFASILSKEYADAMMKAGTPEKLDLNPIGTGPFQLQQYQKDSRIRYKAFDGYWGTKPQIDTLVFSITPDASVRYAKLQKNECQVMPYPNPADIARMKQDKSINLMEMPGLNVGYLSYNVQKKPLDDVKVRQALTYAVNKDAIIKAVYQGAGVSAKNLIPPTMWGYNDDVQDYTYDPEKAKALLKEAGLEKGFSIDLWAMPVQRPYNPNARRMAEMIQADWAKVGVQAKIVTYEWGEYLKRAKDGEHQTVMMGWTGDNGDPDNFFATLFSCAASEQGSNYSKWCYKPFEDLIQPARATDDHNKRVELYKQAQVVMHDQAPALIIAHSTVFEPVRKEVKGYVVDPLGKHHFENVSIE
T8 sequence (P23847 29-535 K422C): as the sequence (P23847 29-535 S139C) above, with C111S, K394C counted along it
T12 sequence (P23847 29-535 W343C): as the sequence (P23847 29-535 S139C) above, with C111S, W315C counted along it
T3 sequence (P02925 26-296 E217C): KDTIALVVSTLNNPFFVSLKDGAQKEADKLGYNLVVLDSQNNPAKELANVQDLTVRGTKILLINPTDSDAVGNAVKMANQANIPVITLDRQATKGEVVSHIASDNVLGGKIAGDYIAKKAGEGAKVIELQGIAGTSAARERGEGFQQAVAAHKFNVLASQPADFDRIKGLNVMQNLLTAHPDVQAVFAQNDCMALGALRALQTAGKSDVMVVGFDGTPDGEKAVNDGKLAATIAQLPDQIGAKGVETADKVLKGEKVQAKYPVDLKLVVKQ
T4 sequence (P02925 26-296 L261C): as the sequence (P02925 26-296 E217C) above, with C192E, L236C counted along it
T2 sequence (P02925 26-296 A259C): as the sequence (P02925 26-296 E217C) above, with C192E, A234C counted along it
T7 sequence (P23847 29-535 D478C): as the sequence (P23847 29-535 S139C) above, with C111S, D450C counted along it
T9 sequence (P23847 29-535 R169C): as the sequence (P23847 29-535 S139C) above, with C111S, R141C counted along it
T11 sequence (P23847 29-535 T72C): as the sequence (P23847 29-535 S139C) above, with T44C, C111S counted along it
T6 sequence (P23847 29-535, stated change not applied): as the sequence (P23847 29-535 S139C) above, with C111S counted along it
T1 sequence (P02925 26-296, stated change not applied): as the sequence (P02925 26-296 E217C) above, with C192E counted along it
T5 sequence (P02925 26-296 L290C): as the sequence (P02925 26-296 E217C) above, with C192E, L265C counted along it

How did the “range of Kd” value [1] turn out when OC1OC[C@@H](O)[C@@H](O)[C@H]1O (stereo partly shown) [ribose] was run?
The value was 0.1 to 2090 µM.

What about the Kd ([2]; JPW4039 conjugate) of the same compound?
The Kd was 1.84 µM.

And the Kd ([2]; JPW4045 conjugate)?
The Kd was 3.76 µM.

What about the Kd ([2]; NBD conjugate) of the same compound?
Its Kd is 0.735 µM.

And the Kd ([3]; Kd, Fluorescein conjugate, E192C, ligand ribose)?
Its Kd is 11.4 µM.

And the Kd ([3]; Kd, JPW4039 conjugate, E192C, ligand ribose)?
Its Kd is 2.57 µM.

And the Kd ([3]; Kd, JPW4042 conjugate, E192C, ligand ribose)?
Its Kd is 5.03 µM.

And the Kd ([3]; Kd, JPW4045 conjugate, E192C, ligand ribose)?
The Kd was 15 µM.

And the Kd ([3]; Kd, NBD conjugate, E192C, ligand ribose)?
Its Kd is 2.6 µM.

What about the Kd ([3]; affinity for ribose (Kd), E192C-JPW4039 conjugate) of the same compound?
Its Kd is 2.6 µM.

What about the Kd ([3]; affinity for ribose (Kd), E192C-JPW4045 conjugate) of the same compound?
Its Kd is 15 µM.

What about the Kd ([3]; affinity for ribose (Kd), E192C-NBD conjugate) of the same compound?
The Kd was 2.6 µM.

What about the Kd ([4]; JPW4042 conjugate) of the same compound?
The Kd was 0.62 µM.

What about the Kd ([4]; JPW4045 conjugate) of the same compound?
Its Kd is 1.53 µM.

What about the Kd ([4]; NBD conjugate) of the same compound?
Its Kd is 0.1 µM.

What about the Kd [5] of the same compound?
Its Kd is 0.26 µM.

Which results are given for CC(C)C[C@H](NC(=O)CN)C(=O)O [Gly-Leu, Gly-Leu dipeptide]?
range of Kd [6]: 0.006 to 93 µM; Kd ([7]; Acrylodan conjugate): 11 µM; Kd ([7]; JPW4039 conjugate): 0.91 µM; Kd ([7]; JPW4042 conjugate): 1.5 µM; Kd ([7]; JPW4045 conjugate): 2 µM; Kd ([8]; Kd, Acrylodan conjugate, peristeric site): 23 µM; Kd ([8]; Kd, Fluorescein conjugate, peristeric site): 93 µM; Kd ([8]; Kd, JPW4039 conjugate, peristeric site): 30 µM; Kd ([8]; Kd, JPW4042 conjugate, peristeric site): 78 µM; Kd ([8]; Kd, NBD conjugate, peristeric site): 0.012 µM; Kd ([8]; affinity for Gly-Leu dipeptide (Kd), K394C-NBD conjugate): 0.006 µM; Kd ([8]; affinity for Gly-Leu dipeptide (Kd), K394C-fluorescein conjugate): 93 µM; Kd ([9]; Acrylodan conjugate): 2.3 µM; Kd ([9]; Fluorescein conjugate): 38 µM; Kd ([10]; Acrylodan conjugate): 4.8 µM; Kd ([10]; Fluorescein conjugate): 2.6 µM; Kd ([10]; JPW4039 conjugate): 34 µM; Kd ([10]; JPW4042 conjugate): 15.8 µM; Kd ([11]; Fluorescein conjugate): 0.64 µM; Kd ([11]; NBD conjugate): 0.006 µM; Kd ([12]; Acrylodan conjugate): 0.13 µM; Kd ([12]; JPW4039 conjugate): 1 µM; Kd ([12]; JPW4045 conjugate): 3.2 µM; Kd ([12]; NBD conjugate): 0.06 µM
